Laboratory results reported in patent US11618747B2, “LXR modulators with bicyclic core moiety” (OrsoBio, Inc., priority 2018, dated 2023).

Columns and labels:
[1] = Pharmacokinetics in mice after single oral dosing (blood/plasma and liver exposure); assay type: in vivo, mice (C57/bl6/J); settings: 20 mg/kg single oral dose
Protocol: The pharmacokinetics of the compounds was assessed in mice after single dosing and oral administrations. Blood/plasma and liver exposure was measured via LC-MS.
The study design was as follows:
Animals: C57/bl6/J (Janvier) males
Diet: standard rodent chow
Animal handling: animals were withdrawn from food at least 12 h before administration
Design: single dose oral administration, n=3 animals per group
Sacrifice: at stated time point (4, 12 or 24 h) after administration
Bioanalytics: LC-MS of liver and blood/plasma samples

[2] = Short term HFD mouse model: plasma and liver exposure; assay type: in vivo, mice (C57BL/6J); settings: HFD mice, three oral doses of 20 mg/kg, 4 h after last dose
Protocol: Short Term HFD Mouse Model:
The in vivo transcriptional regulation of several LXR target genes by LXR modulators was assessed in mice.
For this, C57BL/6J were purchased from Elevage Janvier (Rennes, France) at the age of 8 weeks. After an acclimation period of two weeks, animals were preferred on a high fat diet (HFD) (Ssniff Spezialdiäten GmbH, Germany, Surwit EF D12330 mod, Cat. No. E15771-34), with 60 kcal % from fat plus 1% (w/w) extra cholesterol (Sigma-Aldrich, St. Louis, Mo.) for 5 days. Animals were maintained on this diet during treatment with LXR modulators. The test compounds were formulated in 0.5% hydroxypropylmethylcellulose (HPMC) and administered in three doses (from 1.5 to 20 mg/kg each) by oral gavage according to the following schedule: on day one, animals received treatment in the morning and the evening (ca. 17:00), on day two animals received the final treatment in the morning after a 4 h fast and were sacrificed 4 h thereafter. Animal work was conducted according to the national guidelines for animal care in Germany.
Upon termination, liver was collected, dipped in ice cold PBS for 30 seconds and cut into appropriate pieces. Pieces were snap frozen in liquid nitrogen and stored at −80° C. For the clinical chemistry analysis from plasma, alanine aminotransferase (ALT, IU/mL), cholesterol (CHOL, mg/dL) and triglycerides (TG, mg/dL) were determined using a fully-automated bench top analyzer (Respons®910, DiaSys Greiner GmbH, Flacht, Germany) with system kits provided by the manufacturer.

full length (FL) LXRα = molecular target: T1, full length (FL) LXRα (Homo sapiens, UniProt Q13133); assay: LXR Gal4 reporter transient transfection assay (FL-M2H Gal4α); assay type: cell-based; settings: HEK293 cells, full length LXRα; read-out: FL-M2H Gal4α (EC50 range)
T1 construct: the full length (FL) proteins of LXRα (amino acids 1-447); NP005684; expressed in transfected cells; host or cells: HEK293
T1 sequence (Q13133 1-447): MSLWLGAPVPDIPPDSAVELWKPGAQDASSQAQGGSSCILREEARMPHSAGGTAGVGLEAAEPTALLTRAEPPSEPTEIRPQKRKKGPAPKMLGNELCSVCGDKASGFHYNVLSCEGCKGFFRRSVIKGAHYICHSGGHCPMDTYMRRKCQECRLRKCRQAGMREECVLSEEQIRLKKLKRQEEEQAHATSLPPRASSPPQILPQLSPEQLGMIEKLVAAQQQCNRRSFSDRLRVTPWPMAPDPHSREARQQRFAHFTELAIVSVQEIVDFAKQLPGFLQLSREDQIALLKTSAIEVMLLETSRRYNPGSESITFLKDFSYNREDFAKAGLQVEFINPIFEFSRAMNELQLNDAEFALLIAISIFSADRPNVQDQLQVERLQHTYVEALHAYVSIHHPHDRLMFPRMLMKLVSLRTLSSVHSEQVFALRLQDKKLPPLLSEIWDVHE
Procedure, shortened: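 Test compounds act for 16 h on transiently transfected HEK293 cells carrying AD-LXR and GAL4 BD-cofactor (SRC1 or NCoR) fusions. Firefly luciferase under GAL4 elements is quantified and corrected with Renilla luciferase for transfection efficiency.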

## Cc1ccc(S(=O)(=O)n2c(-c3cccc(-c4ccc(C(=O)O)cc4Cl)c3)c(-c3ccsc3C#N)c3cc(F)ccc32)cc1 [3/48]
[1]; time point 12 h
  blood/plasma exposure (below LLOQ, LLOQ given): (1.2 ng/mL)
  liver exposure: A (A: <300 nM)
[2]
  liver exposure 4 h: C (1 μM to ≤10 μM)
  liver/plasma ratio 4 h: C (30 to ≤100)
  plasma exposure 4 h: D (D: <100 nM)
Full length (FL) LXRα
  EC50: < 100 nM

## Cc1ccc(S(=O)(=O)n2c(-c3cccc(-c4ccc(C(=O)O)cc4)c3)c(-c3ccsc3C#N)c3cc(F)ccc32)cc1 [5/3]
[1]; time point 4 h
  blood/plasma exposure: C (C: 100 nM to <300 nM)
  liver exposure: C (C: 1 μM to ≤3 μM)
  liver/blood ratio: C (C: 10 to ≤30)
[2]
  liver exposure 4 h: C (1 μM to ≤10 μM)
  liver/plasma ratio 4 h: B (5 to ≤30)
  plasma exposure 4 h: D (D: <100 nM)

## Cc1ccc(S(=O)(=O)n2c(-c3cccc(-c4ccc(C(=O)O)cc4)c3)c(-c3ccsc3C#N)c3cc(F)ccc32)cc1C [23/2]
[1]; time point 4 h
  blood/plasma exposure: B (B: 300 nM to ≤1 μM)
  liver exposure: D (D: >3 μM)
  liver/blood ratio: C (C: 10 to ≤30)
[2]
  liver exposure 4 h: A (<300 nM)
  liver/plasma ratio 4 h: A (<5)
  plasma exposure 4 h: C (C: 100 nM to <300 nM)
Full length (FL) LXRα
  EC50: < 100 nM
